Usually IC50 stands for the concentration at which inhibition is half-maximal.

In one data set the target is T1, EGFR (Homo sapiens, UniProt P00533).
T1 construct: EGFR cytoplasmic domain (EGFR-CD, amino acids 645–1186); His6 (N); made in house; host or cells: Sf-9 insect cells (baculovirus)
The data set is described as follows: EGFR inhibitory assay. Particulars: for %inh: EGFR, unit not given; for IC50: read-out: EGFR inhibition IC50 ± SEM. The data set is classed as biochemical.

For a further data set, the system named is caspase-3. Briefly: Caspase-3 level in HOP-92 cells (RT-PCR fold change). The data set is classed as cell-based, human. Particulars: for Gene Expression FLD 2^ ΔΔCT Casp3: vs GAPDH, E=1.869, control = 1. The text has this:
(§1) In the depicted findings, compound 4e affected Bcl-2, caspase-3, and caspase-9, increasing the expression of caspase-3/9 and decreasing the expression of Bcl-2, confirming the apoptotic status.
(§2) Researcher : Dr.Mohamed Hawas email: mohhawwas80@gmail.com mob. 01151345909 Assay : Cell Cycle Analysis mohamedhassan.pharm.ast@azhr.edu.eg Assay : RT-PCR Samples : 02 SamplesCell lines : ----Ref. : ----Date : 12-06-2023Reader : Rotorgene RT- PCR system Kit used : Qiagen RNA extraction/BioRad syber green PCR MMXSolvent : DMSOAssay samples : Cell Lysate
Allow all reagents to reach room temperature before use. Gently mix all liquidreagents prior to use. Determine the number of 8-well strips needed for the assay. Insert these in the frame(s) for current use. Add 100 μl of the Standard Diluent Buffer to the zero standard wells. Well(s) reserved for chromogen blank should be left empty. Add 100 μl of standards and controls or diluted samples to the appropriate microtiter wells. The sample dilution chosen should be optimized for each experimental system. Tap gently on side of plate to mix. Cover wells with plate cover and incubate for 2 hours at room temperature. Thoroughly aspirate or decant solution from wells and discard the liquid, Wash wells 4 times. Pipette 100 μl of Caspase-3 (Active) Detection Antibody solution into each well except the chromogen blank(s). Tap gently on the side of the plate to mix. Cover plate with plate cover and incubate for 1 hour at room temperature. Thoroughly aspirate or decant solution from wells and discard the liquid, Wash wells 4 times. Add 100 μl Anti-Rabbit IgG HRP Working Solution to each well except the chromogen blank(s). Prepare the working dilution as described in Preparing IgG HRP. Cover wells with the plate cover and incubate for 30 minutes at room temperature. Thoroughly aspirate or decant solution from wells and discard the liquid. Wash wells 4 times. Add 100 μl of Stabilized Chromogento each well. The liquid in the wells will begin to turn blue. Incubate for 30 minutes at room temperature and in the dark. The incubation time for chromogen substrate is often determined by the microtiter platereader used. Many plate readers have the capacity to record a maximum optical density (O.D.) of 2.0. The O.D. values should be monitored and the substrate reaction stopped before the O.D. of the positive wells exceeds the limits of the instrument. The O.D. values at 450 nm can only be read after the Stop Solution has been added to each well. […] Read the absorbance of each well at 450 nm having blanked the plate reader against a chromogen blank composed of 100 μl each of StabilizedChromogenand Stop Solution. Read the plate within 2 hours after adding the Stop Solution. […] Read the concentrations for unknown samples and controls from the standard curve. […]

The test system of the next data set is caspase-9. Briefly: Caspase-9 level in HOP-92 cells (RT-PCR fold change). Particulars: for Gene Expression FLD 2^ ΔΔCT Casp9: vs GAPDH, E=1.869, control = 1. The data set is classed as cell-based, human.
Text: as §1, §2
Cells were obtained from American Type Culture Collection, cells were grown in RPMI 1640 containing 10% fetal bovine serum at 37°C, stimulated with the compounds to be tested […], and lysed with Cell Extraction Buffer. This lysate was diluted in Standard Diluent Buffer over the range of the assay and measured for human active caspase-8 or 9 content. […] The absorbance of each microwell was read on a spectro-photometer at 450 nm. A standard curve is prepared from 7 human Caspases standard dilutions and human Caspase-8 or 9 concentration determined.

Another data set relates to Bcl-2. The data set is described as follows: Bcl-2 level in HOP-92 cells (RT-PCR fold change). The data set is classed as cell-based, human. Particulars: for Gene Expression FLD 2^ ΔΔCT bcl2: vs GAPDH, E=1.869, control = 1.
Text: as §1, §2
Mix all reagents thoroughly without foaming before use. Wash the microwells twice with approximately 300 μL Wash Buffer per well with thorough aspiration of microwell contents between washes. Take caution not to scratch the surface of the microwells. After the last wash, empty the wells and tap microwell strips on absorbent pad or paper towel to remove excess Wash Buffer. Use the microwell strips immediately after washing or place upside down on a wet absorbent paper for not longer than 15 minutes. […] Add 100 μL of Sample Diluent in duplicate to all standard wells and to the blank wells. Prepare standard (1:2 dilution) in duplicate ranging from 32 ng/mL to 0.5 ng/mL. Add 100 μL of Sample Diluent, in duplicate, to the blank wells. Add 80 μL of Sample Diluent, in duplicate, to the sample wells. Add 20 μL of each Sample, in duplicate, to the designated wells. Add 50 μL of diluted biotin-conjugate to all wells, including the blank wells. […] The point, at which the substrate reaction is stopped, is often determined by the ELISA reader. Many ELISA readers record absorbance only up to 2.0 O.D. Therefore, the color development within individual microwells must be watched by the person running the assay and the substrate reaction stopped before positive wells are no longer properly detectable. […] Results must be read immediately after the Stop Solution is added or within one hour if the microwell strips are stored at 2 - 8°C in the dark. Read absorbance of each microwell on a spectrophotometer using 450 nm as the primary wave length.

The subject of another data set is normal cell line WI-38. Particulars: human, 0.4 µM.

T1 sequence (P00533 669-1210): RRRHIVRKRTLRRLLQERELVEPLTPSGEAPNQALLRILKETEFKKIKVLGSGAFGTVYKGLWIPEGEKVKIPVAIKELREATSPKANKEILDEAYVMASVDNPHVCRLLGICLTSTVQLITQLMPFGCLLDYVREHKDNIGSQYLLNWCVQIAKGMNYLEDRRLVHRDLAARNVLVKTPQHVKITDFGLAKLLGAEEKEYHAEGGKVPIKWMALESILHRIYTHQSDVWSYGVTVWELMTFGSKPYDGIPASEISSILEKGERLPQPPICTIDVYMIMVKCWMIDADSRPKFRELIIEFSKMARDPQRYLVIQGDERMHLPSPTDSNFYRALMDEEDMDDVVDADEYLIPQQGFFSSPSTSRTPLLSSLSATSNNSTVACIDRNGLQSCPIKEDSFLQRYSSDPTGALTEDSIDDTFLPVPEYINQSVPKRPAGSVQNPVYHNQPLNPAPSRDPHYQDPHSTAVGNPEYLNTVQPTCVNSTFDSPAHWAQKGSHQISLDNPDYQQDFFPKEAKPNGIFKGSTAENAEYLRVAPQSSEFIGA

For the compound `C/C(=N\Nc1ccc(S(N)(=O)=O)cc1)c1cnn(-c2cc(=O)[nH]c3ccc(Cl)cc23)c1C` [Compound 4d, (E)-4-(2-(1-(1-(6-chloro-2-oxo-1,2-dihydroquinolin-4-yl)-5-methyl-1H-pyrazol-4-yl)ethylidene)hydrazineyl)benzenesulfonamide], the “%inh” value at EGFR (conc 0.01 (log -2)) amounted to 27.8%; at EGFR (conc 0.1 (log -1)), 40.6%; on EGFR (conc 1 (log 0)) it was 72.7%; at EGFR (conc 10 (log 1)), 86.9%; on EGFR (conc 100 (log 2)), 93.7%. The IC50 at EGFR turned out to be 156 ± 6 nM.
As for `C/C(=N\Nc1ccc(S(N)(=O)=O)cc1)c1cnn(-c2cc(=O)[nH]c3ccc(Br)cc23)c1C` [Compound 4e, (E)-4-(2-(1-(1-(6-bromo-2-oxo-1,2-dihydroquinolin-4-yl)-5-methyl-1H-pyrazol-4-yl)ethylidene)hydrazineyl)benzenesulfonamide], the “%inh” value on EGFR (conc 0.01 (log -2)) is on record as 37%; on EGFR (conc 0.1 (log -1)) it was 50.6%; on EGFR (conc 1 (log 0)), 75.8%; at EGFR (conc 10 (log 1)), 88.1%; at EGFR (conc 100 (log 2)) it was 94.2%. Moreover, the IC50 at EGFR was 55 ± 2 nM. Moreover, the “RT-PCR Fold Change FLD Casp3” value in the data set with caspase-3 (control = 1) was 4.716. In addition, the “Gene Expression FLD 2^ ΔΔCT Casp3” value with caspase-3 is recorded as 4.7162. In the data set with caspase-3 (vs untreated control), the “RT-PCR Fold Change Casp-3” value stood at 4.716 fold. The “RT-PCR Fold Change FLD Casp9” value with caspase-9 (control = 1) stood at 3.082. The “Gene Expression FLD 2^ ΔΔCT Casp9” value with caspase-9 stood at 3.0825. For the same compound, the “RT-PCR Fold Change Casp-9” value in the data set with caspase-9 (vs untreated control) was found to be 3.082 fold. Moreover, the “RT-PCR Fold Change FLD Bcl2” value in the data set with Bcl-2 (control = 1) worked out at 0.299. Besides, in the data set with Bcl-2, the “Gene Expression FLD 2^ ΔΔCT bcl2” value was 0.2991.
As to `C/C(=N\Nc1ccc(C(=O)O)cc1)c1cnn(-c2cc(=O)[nH]c3ccccc23)c1C` [Compound 4f, (E)-4-(2-(1-(5-methyl-1-(2-oxo-1,2-dihydroquinolin-4-yl)-1H-pyrazol-4-yl)ethylidene) hydrazineyl)benzoic acid], the “%inh” value was determined as 10.6% at EGFR (conc 0.01 (log -2)); 26% on EGFR (conc 0.1 (log -1)); 61.8% at EGFR (conc 1 (log 0)); 80.6% on EGFR (conc 10 (log 1)); 92.1% on EGFR (conc 100 (log 2)). Further, on EGFR, the IC50 came to 640 ± 23 nM.
Take `C/C(=N\Nc1ccc(C(=O)O)cc1)c1cnn(-c2cc(=O)[nH]c3ccc(C)cc23)c1C` [Compound 4g, (E)-4-(2-(1-(5-methyl-1-(6-methyl-2-oxo-1,2-dihydroquinolin-4-yl)-1H-pyrazol-4-yl)ethylidene)hydrazineyl)benzoic acid]: the “%inh” value at EGFR (conc 0.01 (log -2)) was 21%; on EGFR (conc 0.1 (log -1)), 44.2%; at EGFR (conc 1 (log 0)), 71.4%; on EGFR (conc 10 (log 1)), 86.3%; at EGFR (conc 100 (log 2)), 94.5%. The IC50 on EGFR was 194 ± 7 nM.
On to `CN[C@@H]1C[C@H]2O[C@@](C)([C@@H]1OC)n1c3ccccc3c3c4c(c5c6ccccc6n2c5c31)C(=O)NC4` [Staurosporine, reference compound], for which the “Gene Expression FLD 2^ ΔΔCT Casp3” value with caspase-3 came to 6.9067. Further, the “Gene Expression FLD 2^ ΔΔCT Casp9” value with caspase-9 amounted to 5.5143. In addition, in the data set on Bcl-2, the “Gene Expression FLD 2^ ΔΔCT bcl2” value was 0.3265. For the same compound, in the data set on normal cell line WI-38, the “% viability” value is on record as 84.55%.

The values are drawn from article PMC12638379, “An innovative approach to development of new pyrazolylquinolin-2-one hybrids as dual EGFR and BRAF^V600E inhibitors” (Molecular Diversity, 2025).
